From patent US4118561A, “7-(Substituted)-7H-pyrrolo[3,2-f]quinazoline-1,3-diamines” (priority 1977, dated 1978)
Converted amounts (≈) assume the structure as drawn.

Key:
P. vulgaris 6896 = test: In vitro antibacterial activity (MIC), P. vulgaris 6896; conditions: Proteus vulgaris, 6896, 18 h
E. coli 9637 = test: In vitro antibacterial activity (MIC), E. coli 9637; conditions: Escherichia coli, 9637, 18 h
S. aureus Smith = test: In vitro antibacterial activity (MIC), S. aureus Smith; conditions: Staphylococcus aureus, 18 h
S. paratyphi 11737 = test: In vitro antibacterial activity (MIC), S. paratyphi 11737; type: cell-based; conditions: Salmonella enterica, 18 h
S. aureus 53-180 = test: In vitro antibacterial activity (MIC), S. aureus 53-180; conditions: Staphylococcus aureus, 53180, 18 h
K. pneumoniae 10031 = test: In vitro antibacterial activity (MIC), K. pneumoniae 10031; conditions: Klebsiella pneumoniae, 10031, 18 h
N. catarrhalis 8193 = test: In vitro antibacterial activity (MIC), N. catarrhalis 8193; conditions: 18 h

| SMILES | MIC (P. vulgaris 6896) [µg/mL] | MIC (E. coli 9637) [µg/mL] | MIC (S. aureus Smith) [µg/mL] | MIC (S. paratyphi 11737) [µg/mL] | MIC (S. aureus 53-180) [µg/mL] | MIC (K. pneumoniae 10031) [µg/mL] | MIC (N. catarrhalis 8193) [µg/mL] |
| --- | --- | --- | --- | --- | --- | --- | --- |
| Nc1nc(N)c2c(ccc3[nH]ccc32)n1 [Example 1, 7-H-Pyrrolo[3,2-f]quinazoline-1,3-diamine] | 15.6 (≈ 78.3 µM) | 3.9 (≈ 19.6 µM) | 31.3 (≈ 157 µM) | 31.3 (≈ 157 µM) | 31.3 (≈ 157 µM) | 7.81 (≈ 39.2 µM) | 0.244 (≈ 1.22 µM) |
| Nc1nc(N)c2c(ccc3c2ccn3Cc2ccc(C(F)(F)F)cc2)n1 [Example 13] | 31.3 (≈ 87.6 µM) | 3.9 (≈ 10.9 µM) | 1.95 (≈ 5.46 µM) | 15.6 (≈ 43.7 µM) | 0.976 (≈ 2.73 µM) | 0.976 (≈ 2.73 µM) | 0.031 (≈ 0.0868 µM) |
| Cc1cccc(C)c1Cn1ccc2c3c(N)nc(N)nc3ccc21 [Example 24] | > 250 | 250 (≈ 788 µM) | 250 (≈ 788 µM) | > 250 | 250 (≈ 788 µM) | 15.6 (≈ 49.1 µM) | 0.122 (≈ 0.384 µM) |
| Cc1cc(C)cc(Cn2ccc3c4c(N)nc(N)nc4ccc32)c1 [Example 26] | 15.6 (≈ 49.1 µM) | 7.81 (≈ 24.6 µM) | 0.976 (≈ 3.08 µM) | 15.6 (≈ 49.1 µM) | 0.488 (≈ 1.54 µM) | 0.244 (≈ 0.769 µM) | 0.031 (≈ 0.0977 µM) |
| Cc1cc(C)c(C)c(Cn2ccc3c4c(N)nc(N)nc4ccc32)c1C [Example 28] | > 250 | > 250 | 15.6 (≈ 45.2 µM) | > 250 | 15.6 (≈ 45.2 µM) | 3.9 (≈ 11.3 µM) | 0.244 (≈ 0.706 µM) |
| COc1cccc(Cn2ccc3c4c(N)nc(N)nc4ccc32)c1OC [Example 35] | 7.81 (≈ 22.4 µM) | 0.488 (≈ 1.4 µM) | 0.488 (≈ 1.4 µM) | 15.6 (≈ 44.6 µM) | 0.244 (≈ 0.698 µM) | 0.488 (≈ 1.4 µM) | 0.122 (≈ 0.349 µM) |
| COc1ccc(OC)c(Cn2ccc3c4c(N)nc(N)nc4ccc32)c1 [Example 36] | 3.9 (≈ 11.2 µM) | 0.976 (≈ 2.79 µM) | 0.244 (≈ 0.698 µM) | 3.9 (≈ 11.2 µM) | 0.122 (≈ 0.349 µM) | 0.031 (≈ 0.0887 µM) | 0.031 (≈ 0.0887 µM) |
| CCOc1ccc(Cn2ccc3c4c(N)nc(N)nc4ccc32)cc1 [Example 40] | 7.81 (≈ 23.4 µM) | 1.95 (≈ 5.85 µM) | 1.95 (≈ 5.85 µM) | 7.81 (≈ 23.4 µM) | 0.488 (≈ 1.46 µM) | 3.9 (≈ 11.7 µM) | 0.122 (≈ 0.366 µM) |
| Nc1nc(N)c2c(ccc3c2ccn3Cc2cscn2)n1 [Example 42] | 0.976 (≈ 3.29 µM) | 0.244 (≈ 0.823 µM) | 0.488 (≈ 1.65 µM) | 0.976 (≈ 3.29 µM) | 0.244 (≈ 0.823 µM) | 0.122 (≈ 0.412 µM) | 0.0038 (≈ 0.0128 µM) |
| Nc1nc(N)c2c(ccc3c2ccn3Cc2csc3ccccc23)n1 [Example 46] | > 250 | 125 (≈ 362 µM) | 31.3 (≈ 90.6 µM) | > 250 | 31.3 (≈ 90.6 µM) | 15.6 (≈ 45.2 µM) | 1.95 (≈ 5.65 µM) |
| Cc1noc(C)c1Cn1ccc2c3c(N)nc(N)nc3ccc21 [Example 52] | 3.9 (≈ 12.6 µM) | 0.976 (≈ 3.17 µM) | 1.95 (≈ 6.32 µM) | 1.95 (≈ 6.32 µM) | 0.976 (≈ 3.17 µM) | 0.244 (≈ 0.791 µM) | 0.0152 (≈ 0.0493 µM) |
| Nc1nc(N)c2c(ccc3c2ccn3CC=Cc2ccccc2)n1 [Example 57] | 7.81 (≈ 24.8 µM) | 3.9 (≈ 12.4 µM) | 1.95 (≈ 6.18 µM) | 15.6 (≈ 49.5 µM) | 0.976 (≈ 3.09 µM) | 0.488 (≈ 1.55 µM) | 0.122 (≈ 0.387 µM) |
| COc1cc(Cn2ccc3c4c(N)nc(N)nc4ccc32)cc(OC)c1 [Example 58] | 15.6 (≈ 44.6 µM) | 0.976 (≈ 2.79 µM) | 0.488 (≈ 1.4 µM) | 1.95 (≈ 5.58 µM) | 0.244 (≈ 0.698 µM) | 0.122 (≈ 0.349 µM) | 0.061 (≈ 0.175 µM) |
| Nc1nc(N)c2c(ccc3c2ccn3Cc2cccs2)n1 [Example 59] | 0.244 (≈ 0.826 µM) | 0.061 (≈ 0.207 µM) | 0.244 (≈ 0.826 µM) | 0.244 (≈ 0.826 µM) | 0.061 (≈ 0.207 µM) | 0.061 (≈ 0.207 µM) | 0.0019 (≈ 0.00643 µM) |
| Nc1nc(N)c2c(ccc3c2ccn3Cc2ccc3ccccc3c2Br)n1 [Example 60] | > 250 | > 250 | 31.3 (≈ 74.8 µM) | > 250 | 15.6 (≈ 37.3 µM) | 15.6 (≈ 37.3 µM) | 0.488 (≈ 1.17 µM) |
| Cn1ccc2c3c(N)nc(N)nc3ccc21 [Example 65, 7-Methyl-7H-pyrrolo[3,2-f]quinazoline-1,3-diamine] | 1.95 (≈ 9.14 µM) | 0.976 (≈ 4.58 µM) | 62.5 (≈ 293 µM) | 3.9 (≈ 18.3 µM) | 7.81 (≈ 36.6 µM) | 1.95 (≈ 9.14 µM) | 0.031 (≈ 0.145 µM) |
| Nc1nc(N)c2c(ccc3c2ccn3CC2CCCO2)n1 (stereo not drawn) [Example 67, 7-[(Tetrahydro-2-furanyl)methyl]-7H-pyrrolo-[3,2-f]quinazoline-1,3-diamine] | 3.9 (≈ 13.8 µM) | 1.95 (≈ 6.88 µM) | 3.9 (≈ 13.8 µM) | 7.81 (≈ 27.6 µM) | 0.976 (≈ 3.44 µM) | 0.488 (≈ 1.72 µM) | 0.0038 (≈ 0.0134 µM) |
| Nc1nc(N)c2c(ccc3c2ccn3Cc2ccc(C(=O)[O-])cc2)n1.[Na+] [Example 68, 7-(4-Carboxybenzyl)-7H-pyrrolo[3,2-f]-quinazoline-1,3-diamine, sodium salt] | 250 | > 250 | 250 | > 250 | 250 | > 250 | 62.5 |
